Values after ≈ are worked out from the molar mass of the structure shown.
How the values were obtained:
Escherichia coli = assay: Antibacterial activity against Escherichia coli ATCC 25922; format: functional
Moraxella catarrhalis = assay: Antibacterial activity against Moraxella catarrhalis ATCC 25238; format: functional
Enterococcus faecium = assay: Antibacterial activity against VanA-type vancomycin-resistant Enterococcus faecium A2373; format: functional
Enterococcus faecalis = assay: Antibacterial activity against Enterococcus faecalis ATCC 29212; format: functional
Streptococcus pneumoniae = assay: Antibacterial activity against Streptococcus pneumoniae IID554; format: functional
Haemophilus influenzae = assay: Antibacterial activity against Haemophilus influenzae ATCC 49247; format: functional
Acinetobacter baumannii = assay: Antibacterial activity against Acinetobacter baumannii IID876; format: functional
Staphylococcus aureus [1] = assay: Antibacterial activity against Staphylococcus aureus Smith; format: functional
Pseudomonas aeruginosa = assay: Antibacterial activity against Pseudomonas aeruginosa PAO1; format: functional
Staphylococcus aureus [2] = assay: Ratio of MIC for quinolone-resistant Staphylococcus aureus MS5935 to MIC for quinolone-sensitive Staphylococcus aureus; format: functional
[3] = target: T1, Voltage-gated inwardly rectifying potassium channel KCNH2 (Homo sapiens, UniProt Q12809); assay: Inhibition of human ERG expressed in CHO cells measured over 5 mins by patch clamp assay
T1 sequence (Q12809 whole entry): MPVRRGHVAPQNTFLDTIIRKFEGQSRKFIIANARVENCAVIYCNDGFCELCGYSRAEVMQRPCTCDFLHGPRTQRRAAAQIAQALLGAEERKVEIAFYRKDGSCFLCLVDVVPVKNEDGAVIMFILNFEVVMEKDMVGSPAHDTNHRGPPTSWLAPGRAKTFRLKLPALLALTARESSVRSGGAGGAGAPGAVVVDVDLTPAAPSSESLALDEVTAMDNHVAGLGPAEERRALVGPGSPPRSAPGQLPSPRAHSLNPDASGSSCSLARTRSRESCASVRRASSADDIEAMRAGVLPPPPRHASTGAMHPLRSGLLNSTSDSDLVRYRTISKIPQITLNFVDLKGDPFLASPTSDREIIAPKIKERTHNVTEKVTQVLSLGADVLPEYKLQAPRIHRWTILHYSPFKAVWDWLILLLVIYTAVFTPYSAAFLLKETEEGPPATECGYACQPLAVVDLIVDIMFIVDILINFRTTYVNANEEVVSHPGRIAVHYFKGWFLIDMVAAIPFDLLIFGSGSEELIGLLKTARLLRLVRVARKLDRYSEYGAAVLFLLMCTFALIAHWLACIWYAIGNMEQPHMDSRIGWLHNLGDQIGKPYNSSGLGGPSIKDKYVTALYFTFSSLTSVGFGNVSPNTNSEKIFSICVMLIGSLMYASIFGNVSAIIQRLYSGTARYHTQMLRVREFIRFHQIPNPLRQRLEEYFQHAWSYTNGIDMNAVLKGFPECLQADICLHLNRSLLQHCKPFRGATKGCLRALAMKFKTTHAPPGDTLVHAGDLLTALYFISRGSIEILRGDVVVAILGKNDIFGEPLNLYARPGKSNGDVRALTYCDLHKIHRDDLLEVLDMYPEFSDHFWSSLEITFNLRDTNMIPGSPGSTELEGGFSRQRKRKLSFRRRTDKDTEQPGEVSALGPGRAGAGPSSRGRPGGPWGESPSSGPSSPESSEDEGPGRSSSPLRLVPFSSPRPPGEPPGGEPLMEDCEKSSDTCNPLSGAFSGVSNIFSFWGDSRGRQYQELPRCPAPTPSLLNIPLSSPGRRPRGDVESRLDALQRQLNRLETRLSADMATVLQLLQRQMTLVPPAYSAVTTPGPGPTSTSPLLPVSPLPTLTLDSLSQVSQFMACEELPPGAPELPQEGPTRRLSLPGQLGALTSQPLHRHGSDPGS

[4] = target: T1, Voltage-gated inwardly rectifying potassium channel KCNH2; assay: Displacement of MK499 from human ERG
[5] = Escherichia coli, ATCC 25922, read-out: MIC
[6] = Moraxella catarrhalis, ATCC 25238, read-out: MIC
[7] = Enterococcus faecium, A2373, read-out: MIC
[8] = Enterococcus faecalis, ATCC 29212, read-out: MIC
[9] = Streptococcus pneumoniae, IID554, read-out: MIC
[10] = Haemophilus influenzae, ATCC 49247, read-out: MIC
[11] = Acinetobacter baumannii, IID876, read-out: MIC
[12] = Staphylococcus aureus, Smith, read-out: MIC
[13] = Pseudomonas aeruginosa, PAO1, read-out: MIC

| SMILES | MIC (Escherichia coli; [5]) | MIC (Moraxella catarrhalis; [6]) | MIC (Enterococcus faecium; [7]) | MIC (Enterococcus faecalis; [8]) | MIC (Streptococcus pneumoniae; [9]) | MIC (Haemophilus influenzae; [10]) | MIC (Acinetobacter baumannii; [11]) | MIC (Staphylococcus aureus [1]; [12]) | MIC (Pseudomonas aeruginosa; [13]) | Ratio (Staphylococcus aureus [2]) | also measured |
| --- | --- | --- | --- | --- | --- | --- | --- | --- | --- | --- | --- |
| O=c1ccc2ncc(F)c3c2n1C[C@@]3(O)CC12CCC(NCc3c(Cl)cc4c(c3Cl)OCCO4)(CC1)CO2 | 32 µg/mL (≈ 56.9 µM) | 32 µg/mL (≈ 56.9 µM) | 32 µg/mL (≈ 56.9 µM) | 16 µg/mL (≈ 28.4 µM) | 4 µg/mL (≈ 7.11 µM) | 32 µg/mL (≈ 56.9 µM) | 32 µg/mL (≈ 56.9 µM) | 4 µg/mL (≈ 7.11 µM) | 32 µg/mL (≈ 56.9 µM) | – | – |
| O=c1ccc2ncc(F)c3c2n1C[C@@]3(O)CC12CCC(NCc3cc4c(c(Cl)c3Cl)OCCO4)(CC1)CO2 | 32 µg/mL (≈ 56.9 µM) | 0.5 µg/mL (≈ 0.889 µM) | 32 µg/mL (≈ 56.9 µM) | 8 µg/mL (≈ 14.2 µM) | 4 µg/mL (≈ 7.11 µM) | 32 µg/mL (≈ 56.9 µM) | 32 µg/mL (≈ 56.9 µM) | 1 µg/mL (≈ 1.78 µM) | 32 µg/mL (≈ 56.9 µM) | – | – |
| O=c1ccc2ncc(F)c3c2n1C[C@@]3(O)CC12CCC(NCc3ccc4c(n3)OCCN4)(CC1)CO2 | 32 µg/mL (≈ 64.8 µM) | 32 µg/mL (≈ 64.8 µM) | 32 µg/mL (≈ 64.8 µM) | 32 µg/mL (≈ 64.8 µM) | 8 µg/mL (≈ 16.2 µM) | 32 µg/mL (≈ 64.8 µM) | 32 µg/mL (≈ 64.8 µM) | 8 µg/mL (≈ 16.2 µM) | 32 µg/mL (≈ 64.8 µM) | <4 | – |
| O=c1ccc2ncc(F)c3c2n1C[C@@]3(O)CC12CCC(NCc3ccc4c(n3)NCCN4)(CC1)CO2 | 32 µg/mL (≈ 65 µM) | 32 µg/mL (≈ 65 µM) | 32 µg/mL (≈ 65 µM) | 32 µg/mL (≈ 65 µM) | 16 µg/mL (≈ 32.5 µM) | – | 32 µg/mL (≈ 65 µM) | 8 µg/mL (≈ 16.2 µM) | 32 µg/mL (≈ 65 µM) | <4 | IC50 [3]: > 60 µM; IC50 [4]: > 60 µM |
| CN1CCOc2ccc(CNC34CCC(C[C@]5(O)Cn6c(=O)ccc7ncc(F)c5c76)(CC3)OC4)nc21 | 32 µg/mL (≈ 63 µM) | – | 32 µg/mL (≈ 63 µM) | 32 µg/mL (≈ 63 µM) | 8 µg/mL (≈ 15.8 µM) | – | 32 µg/mL (≈ 63 µM) | 4 µg/mL (≈ 7.88 µM) | 32 µg/mL (≈ 63 µM) | <4 | IC50 [3]: > 60 µM; IC50 [4]: > 60 µM |
| CN1CCOc2nc(CNC34CCC(C[C@]5(O)Cn6c(=O)ccc7ncc(F)c5c76)(CC3)OC4)ccc21 | 16 µg/mL (≈ 31.5 µM) | – | 16 µg/mL (≈ 31.5 µM) | 16 µg/mL (≈ 31.5 µM) | 4 µg/mL (≈ 7.88 µM) | – | 16 µg/mL (≈ 31.5 µM) | 2 µg/mL (≈ 3.94 µM) | 16 µg/mL (≈ 31.5 µM) | <4 | – |
| CN1CCN(C)c2nc(CNC34CCC(C[C@]5(O)Cn6c(=O)ccc7ncc(F)c5c76)(CC3)OC4)ccc21 | 32 µg/mL (≈ 61.5 µM) | 32 µg/mL (≈ 61.5 µM) | 32 µg/mL (≈ 61.5 µM) | 32 µg/mL (≈ 61.5 µM) | 32 µg/mL (≈ 61.5 µM) | 32 µg/mL (≈ 61.5 µM) | 32 µg/mL (≈ 61.5 µM) | 8 µg/mL (≈ 15.4 µM) | 32 µg/mL (≈ 61.5 µM) | – | – |
| O=c1ccc2ncc(F)c3c2n1C[C@@]3(O)CC12CCC(NCc3cc4c(cn3)OCS4)(CC1)CO2 | 8 µg/mL (≈ 16.1 µM) | 0.5 µg/mL (≈ 1.01 µM) | 8 µg/mL (≈ 16.1 µM) | 2 µg/mL (≈ 4.03 µM) | 0.25 µg/mL (≈ 0.503 µM) | 4 µg/mL (≈ 8.06 µM) | 0.5 µg/mL (≈ 1.01 µM) | 0.25 µg/mL (≈ 0.503 µM) | 32 µg/mL (≈ 64.4 µM) | – | – |
| O=c1ccc2ncc(F)c3c2n1C[C@@]3(O)CC12CCC(NCc3cc4c(cn3)OCCC4)(CC1)CO2 | 16 µg/mL (≈ 32.5 µM) | – | 16 µg/mL (≈ 32.5 µM) | 4 µg/mL (≈ 8.12 µM) | 0.5 µg/mL (≈ 1.02 µM) | 4 µg/mL (≈ 8.12 µM) | 4 µg/mL (≈ 8.12 µM) | 0.13 µg/mL (≈ 0.264 µM) | 32 µg/mL (≈ 65 µM) | – | – |
| O=c1ccc2ncc(F)c3c2n1C[C@@]3(O)CC12CCC(NC/C=C/c3c(F)cccc3F)(CC1)CO2 | 16 µg/mL (≈ 32.2 µM) | – | 8 µg/mL (≈ 16.1 µM) | 4 µg/mL (≈ 8.04 µM) | 0.25 µg/mL (≈ 0.502 µM) | – | 2 µg/mL (≈ 4.02 µM) | 0.063 µg/mL (≈ 0.127 µM) | 32 µg/mL (≈ 64.3 µM) | <4 | – |
| CC1COc2cc(CNC34CCC(C[C@]5(O)Cn6c(=O)ccc7ncc(F)c5c76)(CC3)OC4)ncc2O1 (stereo in doubt; 19) | 32 µg/mL (≈ 62.9 µM) | 4 µg/mL (≈ 7.87 µM) | 32 µg/mL (≈ 62.9 µM) | 16 µg/mL (≈ 31.5 µM) | – | 32 µg/mL (≈ 62.9 µM) | 16 µg/mL (≈ 31.5 µM) | – | 32 µg/mL (≈ 62.9 µM) | <4 | MIC (Streptococcus pneumoniae): 4 µg/mL (≈ 7.87 µM); MIC (Staphylococcus aureus [1]): 2 µg/mL (≈ 3.93 µM) |
| CC1COc2cc(CNC34CCC(C[C@]5(O)Cn6c(=O)ccc7ncc(F)c5c76)(CC3)OC4)ncc2O1 (stereo in doubt; 20) | – | – | – | – | 2 µg/mL (≈ 3.93 µM) | – | – | 1 µg/mL (≈ 1.97 µM) | – | – | MIC (Escherichia coli): 32 µg/mL (≈ 62.9 µM); IC50 [3]: > 60 µM; MIC (Moraxella catarrhalis): 2 µg/mL (≈ 3.93 µM); MIC (Enterococcus faecium): 32 µg/mL (≈ 62.9 µM); MIC (Enterococcus faecalis): 8 µg/mL (≈ 15.7 µM); MIC (Haemophilus influenzae): 16 µg/mL (≈ 31.5 µM); IC50 [4]: > 60 µM; MIC (Acinetobacter baumannii): 16 µg/mL (≈ 31.5 µM); MIC (Pseudomonas aeruginosa): 32 µg/mL (≈ 62.9 µM) |
| CC1COc2cnc(CNC34CCC(C[C@]5(O)Cn6c(=O)ccc7ncc(F)c5c76)(CC3)OC4)cc2O1 (stereo in doubt; 21) | 32 µg/mL (≈ 62.9 µM) | 32 µg/mL (≈ 62.9 µM) | 32 µg/mL (≈ 62.9 µM) | 16 µg/mL (≈ 31.5 µM) | – | 32 µg/mL (≈ 62.9 µM) | 32 µg/mL (≈ 62.9 µM) | – | 32 µg/mL (≈ 62.9 µM) | – | MIC (Streptococcus pneumoniae): 2 µg/mL (≈ 3.93 µM); MIC (Staphylococcus aureus [1]): 4 µg/mL (≈ 7.87 µM) |
| CC1COc2cnc(CNC34CCC(C[C@]5(O)Cn6c(=O)ccc7ncc(F)c5c76)(CC3)OC4)cc2O1 (stereo in doubt; 22) | – | – | – | – | 4 µg/mL (≈ 7.87 µM) | – | – | 4 µg/mL (≈ 7.87 µM) | – | – | MIC (Escherichia coli): 32 µg/mL (≈ 62.9 µM); MIC (Moraxella catarrhalis): 32 µg/mL (≈ 62.9 µM); MIC (Enterococcus faecium): 32 µg/mL (≈ 62.9 µM); MIC (Enterococcus faecalis): 32 µg/mL (≈ 62.9 µM); MIC (Haemophilus influenzae): 32 µg/mL (≈ 62.9 µM); MIC (Acinetobacter baumannii): 32 µg/mL (≈ 62.9 µM); MIC (Pseudomonas aeruginosa): 32 µg/mL (≈ 62.9 µM) |

From ChEMBL document CHEMBL3425423, “Hydroxy tricyclic 1,5-naphthyridinone oxabicyclooctane-linked novel bacterial topoisomerase inhibitors as broad-spectrum antibacterial agents-SAR of RHS moiety (Part-3)” (Bioorg Med Chem Lett, 2015)
